Legend:
Assay type in all cases: in vivo, male Sprague Dawley rats
[1] = system: monocrotaline-induced pulmonary hypertension; assay: Monocrotaline-induced pulmonary hypertension in rats: organ weights and hemodynamics (central venous pressure); conditions: MCT 60 mg/kg s.c., 10 μg/kg/hour by osmotic minipump, 21 days; for adverse consequences associated with monocrotaline treatment (pulmonary hypertension, increased lung weight, cardiac hypertrophy, right ventricular hypertrophy): FIGS. 1-4
Protocol: (§1) A total of twenty-seven, male Sprague Dawley rats (Charles River, Wilmington, Mass.) (378 +/−12 grams) were utilized in this experiment. Animals were housed in the University of Pittsburgh Medical Center animal care facility (temperature 22° C., light cycle 12 hours, relative humidity 55%). Animals were fed Pro Lab RHM 3000 rodent diet (PMI Nutrition, Inc, St Louis, Mo.) and were given water ad libitum. Institutional guidelines for animal welfare were followed, and the Animal Care and Use Committee approved experimental protocols.
(§2) Animals were randomly assigned to receive subcutaneously saline (1 ml/kg, n=6) or monocrotaline (Sigma, St Louis, Mo.) (MCT, 60 mg/kg subcutaneously) (n=21). Monocrotaline is an agent known to induce pulmonary hypertension. Six hours after the initial injection, control animals were implanted with osmotic minipumps (model 2ML4, Alza, Palo Alto, Calif.) containing vehicle (polyethylene glycol 400, 2.5 μl/hour) (Sigma, St Louis, Mo.), whereas MCT treated animals were implanted with osmotic minipumps containing either vehicle (MCT group; n=7), 2-hydroxyestradiol (Steraloids, Newport, R.I.) (10 μg/kg/hour, MCT+2HE group, n=7) or 2-methoxyestradiol (Steraloids, Newport, R.I.) (10 μg/kg/hour, MCT+2ME group, n=7). Assignment to the MCT, MCT+2HE, and MCT+2ME groups was conducted randomly.
After 21 days animals were weighed, anesthetized with pentobarbital (Sigma, St Louis, Mo.) (50 mg/kg) intraperitoneally, and instrumented for measurements of blood pressure, heart rate and central venous pressure. A PE-50 catheter was inserted into the right jugular vein and advanced approximately one inch and connected to a low-pressure analyzer (LPA, Micro-Med., Inc., Louisville Ky.) for continuous measurements of central venous pressure. […]
Animals were killed by an overdose of anesthetic, and the heart and lungs were removed and weighed. […] Both ventricles were weighed and the right ventricle to left ventricle plus septum ratio was calculated. […]

[2] = system: proliferating cell nuclear antigen (PCNA); assay: Cell proliferation (PCNA immunostaining) in lungs, right ventricle and main pulmonary artery of monocrotaline-treated rats; conditions: vs MCT group, 10 μg/kg/hour, 21 days, p<0.001; for inhibition of proliferative response (PCNA staining) in the lungs: FIG. 6A; for inhibition of proliferative response (PCNA staining) in the right ventricle: FIG. 6B; for inhibition of proliferative response (PCNA staining) in the main pulmonary artery: FIG. 6C
Protocol: as §1, §2
The fixed specimens were embedded in paraffin and cut into 4-micron-thick sections for subsequent light microscopy and immunohistochemical analysis.
For the assessment of proliferation, the proliferating cell nuclear antigen (PCNA) was labeled using the primary monoclonal mouse antibody ( 1/200 dilution; Dako, Carpenteria, Calif.) and VEGF expression was measured using a rabbit polyclonal antibody ( 1/50 dilution, Lab Vision, Fremont, Calif.). A polyclonal ED1 antibody (Serotec, Raleigh, N.C.) specific for the monocyte/macrophage cytoplasmatic antigen was used to label vascular (main pulmonary artery) and pulmonary macrophages. For measurement of nonspecific staining, the primary antibody was replaced with phosphate buffered saline (PBS). Sections were washed and further developed according to the directions of the manufacturer (Dako Corporation, Carpinteria, Calif.) using the LSAB2 kit that contained a second antibody linked to […]. Immunochemical staining for PCNA and VEGF were assessed quantitatively with a SAMBA 4000 image analyzer (Image Products International, Chantilly, Va.) using specialized computer software designed for immunostaining analysis (Immuno-Analysis, version 4.1, Microsoft, Richmond, Wash.). The software set density threshold values by averaging several fields on the negative control tissues in which the primary antibody was replaced with PBS. Background subtraction was then performed on every tissue. Ten high power fields (×400) were assessed for staining density, wall thickness or positively marked cells for ED-1. The results for PCNA and VEGF are reported as the labeling index, which represents the percentage of the total examined area that stained positively. Staining intensity of positive areas was also assessed (mean optical density), and a mean quick score was then calculated (mean optical density×labeling index). The inflammatory response data are expressed as the total number of ED1+ cells per ten high power fields
Statistical analyses were performed using the Number Cruncher Statistical software program (Kaysville, Utah). Group comparisons were performed by a one-factor analysis of variance (1-F ANOVA), followed by post-hoc comparison using the Fisher's LSD test. All data are presented as mean ±S.E.M.

[3] = system: vascular endothelial growth factor (VEGF) expression; assay: VEGF expression (immunohistochemistry) in lungs of monocrotaline-treated rats; conditions: MCT rats, 10 μg/kg/hour, 21 days, mean ±S.E.M., Control 34.2±2.2, MCT 42.8±2.6, p=0.482
Protocol: as §1
Animals were randomly assigned to receive subcutaneously saline (1 ml/kg, n=6) or monocrotaline (Sigma, St Louis, Mo.) (MCT, 60 mg/kg subcutaneously) (n=21). […]
For the assessment of proliferation, the proliferating cell nuclear antigen (PCNA) was labeled using the primary monoclonal mouse antibody ( 1/200 dilution; Dako, Carpenteria, Calif.) and VEGF expression was measured using a rabbit polyclonal antibody ( 1/50 dilution, Lab Vision, Fremont, Calif.). […] Immunochemical staining for PCNA and VEGF were assessed quantitatively with a SAMBA 4000 image analyzer (Image Products International, Chantilly, Va.) using specialized computer software designed for immunostaining analysis (Immuno-Analysis, version 4.1, Microsoft, Richmond, Wash.). […] Ten high power fields (×400) were assessed for staining density, wall thickness or positively marked cells for ED-1. […]

[4] = system: small size pulmonary arteries; assay: Vascular remodeling: wall/media thickness of small size pulmonary arteries (smooth muscle alpha-actin staining) in monocrotaline-treated rats; conditions: vs MCT group (wall thickness increased by 87% vs control); 10 μg/kg/hour, 21 days; p<0.001; FIG. 9
Protocol: as §1
Animals were randomly assigned to receive subcutaneously saline (1 ml/kg, n=6) or monocrotaline (Sigma, St Louis, Mo.) (MCT, 60 mg/kg subcutaneously) (n=21). Monocrotaline is an agent known to induce pulmonary hypertension. […]
For assessment of vascular remodeling, vascular smooth muscle cells in pulmonary arteries were stained with smooth muscle alpha-actin Ab-1 mouse monoclonal antibody ( 1/100 dilution, Lab Vision, Fremont, Calif.). The wall and media thickness were measured in small size pulmonary arteries (50–200 microns) using commercial imaging software. Only vessels with an approximately circular profile were analyzed. […]

| SMILES | adverse consequences associated with monocrotaline treatment (pulmonary hypertension, increased lung weight, cardiac hypertrophy, right ventricular hypertrophy) [1] | inhibition of proliferative response (PCNA staining) in the lungs [2] [%] | inhibition of proliferative response (PCNA staining) in the right ventricle [2] [%] | inhibition of proliferative response (PCNA staining) in the main pulmonary artery [2] [%] | VEGF labeling index (percent of the lung tissue stained positive for VEGF) [3] [%] | attenuation of MCT-induced hypertrophy of the media (wall thickness, small size pulmonary arteries) [4] [%] | central venous pressure ([1]; FIG. 5) |
| --- | --- | --- | --- | --- | --- | --- | --- |
| C[C@]12CC[C@@H]3c4cc(O)c(O)cc4CC[C@H]3[C@@H]1CC[C@@H]2O [2HE, estra-1,3,5 (10)-triene-2,3,17-triol (17β)] | did not demonstrate the same level of adverse consequences | −60 | −81 | −83 | 37.6±3.3 | −50 |  |
| COc1cc2c(cc1O)CC[C@@H]1[C@@H]2CC[C@]2(C)[C@@H](O)CC[C@@H]12 [2ME, estra-1,3,5 (10)-triene-2-methoxy-3, 17-diol (17β)] | did not demonstrate the same level of adverse consequences | −70 | −77 | −94 | 37.6±3.9 | −40 | especially effective at reducing central venous pressure |

From patent publication US7192941B2, “Estradiol metabolites for the treatment of pulmonary hypertension” (priority 2003, dated 2007)
